Reference: ChEMBL document CHEMBL1909046, “DrugMatrix in vitro pharmacology data”

Legend:
Adenosine receptor A1 = target: T1, Adenosine receptor A1 (Homo sapiens, UniProt P30542); assay type: cell membranes, CHO, Membrane; details: cho;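 also: radioligand binding assay at the adenosine A1 receptor, with DPCPX serving as the labelled ligand; in other assays of this panel Not Active means under 50% inhibition at 10 µM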
T1 sequence (P30542 whole entry): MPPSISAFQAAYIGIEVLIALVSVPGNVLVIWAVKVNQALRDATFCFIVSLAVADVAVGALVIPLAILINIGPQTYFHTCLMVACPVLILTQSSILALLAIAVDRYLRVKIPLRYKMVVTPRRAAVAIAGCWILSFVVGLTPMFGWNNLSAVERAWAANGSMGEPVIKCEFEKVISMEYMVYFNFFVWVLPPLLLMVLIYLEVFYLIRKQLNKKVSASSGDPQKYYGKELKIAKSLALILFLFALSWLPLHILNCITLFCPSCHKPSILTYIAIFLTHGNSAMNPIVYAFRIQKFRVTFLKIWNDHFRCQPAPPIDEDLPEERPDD

[1] = DRUGMATRIX: Platelet-Derived Growth Factor (PDGF) radioligand binding (ligand: [125I] PDGF); assay type: cell-based; details: nih3t3; Not Active = under 50% inhibition at 10 µM
[2] = DRUGMATRIX: Imidazoline I2, Central radioligand binding (ligand: [3H] Idazoxan); assay type: cell membranes, Rattus norvegicus, Wistar, Cerebral cortex, Membrane; details: Not Active = under 50% inhibition at 10 µM
[3] = DRUGMATRIX: Glutamate, NMDA, Phencyclidine radioligand binding (ligand: [3H] TCP); assay type: cell membranes, Rattus norvegicus, Wistar, Cerebral cortex, Membrane; details: Not Active = under 50% inhibition at 10 µM
Histamine H2 receptor = Histamine H2 receptor (Homo sapiens, UniProt P25021); assay type: cell membranes, CHO-K1, Membrane; details: cho-k1; also: in other assays of this panel Not Active means under 50% inhibition at 10 µM
Histamine H2 receptor, sequence (P25021 whole entry): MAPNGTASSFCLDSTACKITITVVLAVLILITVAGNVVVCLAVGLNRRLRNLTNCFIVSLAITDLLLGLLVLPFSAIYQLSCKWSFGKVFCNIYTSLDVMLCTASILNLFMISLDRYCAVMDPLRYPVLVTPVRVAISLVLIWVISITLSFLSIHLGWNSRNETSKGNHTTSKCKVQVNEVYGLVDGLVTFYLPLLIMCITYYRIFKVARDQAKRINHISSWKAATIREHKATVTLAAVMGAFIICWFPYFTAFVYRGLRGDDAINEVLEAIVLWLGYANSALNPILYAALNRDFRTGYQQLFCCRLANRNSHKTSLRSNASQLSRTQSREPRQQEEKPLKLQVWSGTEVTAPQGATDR

[4] = target: T2, C-X-C chemokine receptor type 2 (Homo sapiens, UniProt P25025); assay type: cell membranes, Membrane; details: cho-k1; also: in other assays of this panel Not Active means under 50% inhibition at 10 µM
T2 sequence (P25025 whole entry): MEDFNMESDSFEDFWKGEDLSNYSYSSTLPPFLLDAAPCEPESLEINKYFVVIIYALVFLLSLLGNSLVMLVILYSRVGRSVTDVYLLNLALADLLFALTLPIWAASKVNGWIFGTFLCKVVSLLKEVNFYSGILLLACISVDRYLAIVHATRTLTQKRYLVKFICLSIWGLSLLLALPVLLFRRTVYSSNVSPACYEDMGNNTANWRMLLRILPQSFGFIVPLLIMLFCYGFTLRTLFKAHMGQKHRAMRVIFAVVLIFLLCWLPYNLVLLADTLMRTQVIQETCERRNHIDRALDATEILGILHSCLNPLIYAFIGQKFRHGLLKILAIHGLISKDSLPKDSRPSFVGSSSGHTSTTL

[5] = DRUGMATRIX: GABAA, Chloride Channel, TBOB radioligand binding (ligand: [3H] TBOB); assay type: cell membranes, Rattus norvegicus, Wistar, Cerebral cortex, Membrane; details: Not Active = under 50% inhibition at 10 µM
[6] = target: Aldo-keto reductase family 1 member B1 (Rattus norvegicus, UniProt P07943); assay type: tissue-based, Lens of camera-type eye;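 also: inhibition of aldose reductase enzyme activity, measured with DL-glyceraldehyde as the substrate; in other assays of this panel Not Active means under 50% inhibition at 10 µM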
[7] = DRUGMATRIX: Glutamate, NMDA, Agonism radioligand binding (ligand: [3H] CGP-39653); assay type: cell membranes, Rattus norvegicus, Wistar, Cerebral cortex, Membrane; details: Not Active = under 50% inhibition at 10 µM
Substance-P receptor = Substance-P receptor (Homo sapiens, UniProt P25103); assay type: cell membranes, CHO, Membrane; details: cho; also: in other assays of this panel Not Active means under 50% inhibition at 10 µM
Substance-P receptor, sequence (P25103 whole entry): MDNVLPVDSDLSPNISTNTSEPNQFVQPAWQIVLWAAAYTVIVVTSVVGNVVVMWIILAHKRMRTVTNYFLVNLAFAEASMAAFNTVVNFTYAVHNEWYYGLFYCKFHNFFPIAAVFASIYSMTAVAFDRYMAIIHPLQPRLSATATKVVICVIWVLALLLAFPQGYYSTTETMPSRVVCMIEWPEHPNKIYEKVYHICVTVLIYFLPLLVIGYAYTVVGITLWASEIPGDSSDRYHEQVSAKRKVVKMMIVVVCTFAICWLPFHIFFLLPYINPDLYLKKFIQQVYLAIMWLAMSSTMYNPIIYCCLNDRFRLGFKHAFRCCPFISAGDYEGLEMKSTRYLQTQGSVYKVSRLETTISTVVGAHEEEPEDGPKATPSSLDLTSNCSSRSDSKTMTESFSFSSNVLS

[8] = target: T3, Neuropeptide Y receptor type 2 (Homo sapiens, UniProt P49146); assay type: cell membranes, Membrane; details: kan-ts; also: in other assays of this panel Not Active means under 50% inhibition at 10 µM
T3 sequence (P49146 whole entry): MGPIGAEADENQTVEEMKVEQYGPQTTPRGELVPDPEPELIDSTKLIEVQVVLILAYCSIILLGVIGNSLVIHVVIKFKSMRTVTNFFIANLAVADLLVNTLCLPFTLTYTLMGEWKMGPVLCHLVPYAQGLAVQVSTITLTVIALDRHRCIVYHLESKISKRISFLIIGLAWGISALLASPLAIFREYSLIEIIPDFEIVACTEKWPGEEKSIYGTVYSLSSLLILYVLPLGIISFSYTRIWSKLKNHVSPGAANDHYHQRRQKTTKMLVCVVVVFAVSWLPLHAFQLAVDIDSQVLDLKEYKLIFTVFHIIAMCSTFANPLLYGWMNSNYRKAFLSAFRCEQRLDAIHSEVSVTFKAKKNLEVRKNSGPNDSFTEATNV

[9] = DRUGMATRIX: Phosphodiesterase PDE3 enzyme inhibition (substrate: [3H]cAMP + cAMP); assay type: tissue-based, Homo sapiens; details: platelet; Not Active = under 50% inhibition at 10 µM
Melanocortin receptor 4 = Melanocortin receptor 4 (Homo sapiens, UniProt P32245); assay type: cell membranes, Membrane; details: hek293; also: in other assays of this panel Not Active means under 50% inhibition at 10 µM
Melanocortin receptor 4, sequence (P32245 whole entry): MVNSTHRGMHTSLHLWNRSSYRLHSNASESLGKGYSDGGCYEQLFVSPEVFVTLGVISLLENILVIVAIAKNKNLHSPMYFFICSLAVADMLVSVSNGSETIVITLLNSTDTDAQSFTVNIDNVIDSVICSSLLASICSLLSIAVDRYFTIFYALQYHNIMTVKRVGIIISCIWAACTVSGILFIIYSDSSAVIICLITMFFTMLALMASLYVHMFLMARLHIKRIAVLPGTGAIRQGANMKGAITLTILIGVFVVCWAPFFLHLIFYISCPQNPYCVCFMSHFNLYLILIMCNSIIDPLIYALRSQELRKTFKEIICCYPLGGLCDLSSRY

[10] = target: 5-hydroxytryptamine receptor 1B (Rattus norvegicus, UniProt P28564); assay type: cell membranes, Wistar, Cerebral cortex, Membrane; also: in other assays of this panel Not Active means under 50% inhibition at 10 µM
5-hydroxytryptamine receptor 1B, sequence (P28564 whole entry): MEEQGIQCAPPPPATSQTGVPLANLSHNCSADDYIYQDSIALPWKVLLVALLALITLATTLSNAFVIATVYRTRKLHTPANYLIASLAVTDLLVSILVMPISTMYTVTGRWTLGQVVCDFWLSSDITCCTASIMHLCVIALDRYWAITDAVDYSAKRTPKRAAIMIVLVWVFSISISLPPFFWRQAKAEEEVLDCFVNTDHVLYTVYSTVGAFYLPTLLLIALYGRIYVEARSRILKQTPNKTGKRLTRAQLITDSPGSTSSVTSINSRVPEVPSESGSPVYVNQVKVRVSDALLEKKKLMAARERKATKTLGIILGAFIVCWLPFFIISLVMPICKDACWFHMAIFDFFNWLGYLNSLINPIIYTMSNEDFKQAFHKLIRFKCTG

Cytochrome P450 3A4 = Cytochrome P450 3A4 (Homo sapiens, UniProt P08684); details: bti-tn-5b1-4; also: in other assays of this panel Not Active means under 50% inhibition at 10 µM
Cytochrome P450 3A4, sequence (P08684 whole entry): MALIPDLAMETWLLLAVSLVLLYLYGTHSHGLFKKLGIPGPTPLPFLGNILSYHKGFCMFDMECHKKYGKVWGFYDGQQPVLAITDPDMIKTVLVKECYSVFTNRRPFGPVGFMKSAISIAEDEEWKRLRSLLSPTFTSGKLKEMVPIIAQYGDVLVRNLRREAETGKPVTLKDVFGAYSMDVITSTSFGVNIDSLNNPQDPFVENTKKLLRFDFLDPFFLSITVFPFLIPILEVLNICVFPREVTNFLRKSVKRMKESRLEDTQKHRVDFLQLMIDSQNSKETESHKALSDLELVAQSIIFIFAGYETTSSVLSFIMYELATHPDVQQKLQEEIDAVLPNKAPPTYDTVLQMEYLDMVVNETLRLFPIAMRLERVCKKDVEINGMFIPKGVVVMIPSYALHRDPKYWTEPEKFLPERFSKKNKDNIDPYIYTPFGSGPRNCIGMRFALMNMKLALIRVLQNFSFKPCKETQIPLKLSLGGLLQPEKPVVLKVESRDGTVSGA

D(3) dopamine receptor = D(3) dopamine receptor (Homo sapiens, UniProt P35462); assay: DRUGMATRIX: Dopamine D3 radioligand binding (ligand: [3H] Spiperone); assay type: cell membranes, CHO, Membrane; details: cho
D(3) dopamine receptor, sequence (P35462 whole entry): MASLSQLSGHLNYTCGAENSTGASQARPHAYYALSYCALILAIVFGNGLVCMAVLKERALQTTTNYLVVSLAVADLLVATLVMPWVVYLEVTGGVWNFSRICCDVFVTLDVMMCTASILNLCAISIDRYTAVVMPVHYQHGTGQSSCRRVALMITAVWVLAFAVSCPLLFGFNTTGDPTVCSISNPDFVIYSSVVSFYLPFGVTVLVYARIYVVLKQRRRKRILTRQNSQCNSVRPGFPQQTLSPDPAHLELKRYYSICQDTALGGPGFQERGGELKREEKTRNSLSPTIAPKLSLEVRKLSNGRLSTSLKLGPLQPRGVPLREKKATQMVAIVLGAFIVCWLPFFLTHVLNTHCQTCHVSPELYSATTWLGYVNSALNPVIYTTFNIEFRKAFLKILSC

| SMILES | IC50 (Adenosine receptor A1) | IC50 [1] | Ki [1] | IC50 [3] | Ki [3] | IC50 (Histamine H2 receptor) | IC50 [4] | IC50 [5] | Ki [5] | IC50 [6] | IC50 [7] | Ki [7] | IC50 (Substance-P receptor) | IC50 [8] | IC50 [9] | Ki [9] | IC50 (Melanocortin receptor 4) | IC50 [10] | IC50 (Cytochrome P450 3A4) | Ki (Cytochrome P450 3A4) | also measured |
| --- | --- | --- | --- | --- | --- | --- | --- | --- | --- | --- | --- | --- | --- | --- | --- | --- | --- | --- | --- | --- | --- |
| COc1c(N2CCNC(C)C2)c(F)cc2c(=O)c(C(=O)O)cn(C3CC3)c12 (configuration not stated) [GATIFLOXACIN] | Not Active | Not Active | Not Active | Not Active | Not Active | Not Active | Not Active | Not Active | Not Active | Not Active | Not Active | Not Active | Not Active | Not Active | Not Active | Not Active | Not Active | Not Active | Not Active | Not Active | IC50 [2]: Not Active; Ki [2]: Not Active; IC50 (D(3) dopamine receptor): Not Active |
| C=C1CC[C@H](O)C/C1=C/C=C1\CCC[C@]2(C)[C@@H]([C@H](C)/C=C/[C@H](C)C(C)C)CC[C@@H]12 [ERGOCALCIFEROL] | Not Active | Not Active | Not Active | Not Active | Not Active | Not Active | Not Active | Not Active | Not Active | Not Active | Not Active | Not Active | Not Active | Not Active | Not Active | Not Active | Not Active | Not Active | Not Active | Not Active | IC50 [2]: Not Active; Ki [2]: Not Active; IC50 (D(3) dopamine receptor): Not Active |
| Cc1ccccc1N1CCN(CCc2nnc3n2CCCC3)CC1 [DAPIPRAZOLE] | Not Active | Not Active | Not Active | Not Active | Not Active | Not Active | Not Active | Not Active | Not Active | Not Active | Not Active | Not Active | Not Active | Not Active | Not Active | Not Active | Not Active | Not Active | Not Active | Not Active | IC50 [2]: Not Active; Ki [2]: Not Active; IC50 (D(3) dopamine receptor): Not Active |
| COc1ccc(CN(CCN(C)C)c2ccccn2)cc1 [PYRILAMINE] | Not Active | Not Active | Not Active | Not Active | Not Active | Not Active | Not Active | Not Active | Not Active | Not Active | Not Active | Not Active | Not Active | Not Active | Not Active | Not Active | Not Active | Not Active | Not Active | Not Active | IC50 ([2]; read-out: IC50): 3.34 µM; Ki ([2]; read-out: Ki): 2.23 µM; IC50 (D(3) dopamine receptor): Not Active |
